Here are results for eleven compounds from publication PMC12434521, “Characterization of Next-Generation Inhibitors for the Inward-Rectifier Potassium Channel Kir2.1: Discovery of VU6080824” (ACS Medicinal Chemistry Letters, 2025).

Read-outs that look alike come from different tables or passages of the source.

This data set in a line: Rat PK PBL cassette (i.v.). It counts as in vivo, Sprague-Dawley rat. The settings on record: for Kp (total brain to plasma ratio) / AUC / CLp / Elim. t1/2 / MRT / Vss / Kp at 0.25 h / clearance / half-life / Vd: male SD rat, 0.2 mg/kg i.v. cassette; for Kp (total brain to plasma ratio) / Kp at 0.25 h: 0.25 time point (15 min post dosing); for AUC / CLp / Elim. t1/2 / MRT / Vss / clearance / half-life / Vd: n = 1; for Kp at 0.25 h: brain and plasma, read-out: Kp (total brain to plasma ratio); for clearance: read-out: CLp; for half-life: read-out: Elim. t1/2 (converted); for Vd: read-out: Vss. An excerpt: While ML133 has found use as a Kir2.1 tool molecule across many disease models, the in vivo PK of this and related compounds within the dibenzylamine chemotype have not previously been characterized. As a highly efficient method for profiling the PK of a compound set, we therefore examined ML133 (alongside 9 additional next-generation Kir2.1 inhibitors) in our rat PK PBL cassette dosing platform (Table ). − From this experimental setup, administration of a 4-compound bolus dose, plus a standard control, can be used to determine a variety of PK parameters in a high-throughput fashion. Specifically, Sprague–Dawley (SD) rats were given 0.2 mg/kg of each Kir2.1 inhibitor (i.v. dosing, 4 compounds +1 control, total dose 1 mg/kg) with PK measured across set time points up to 24 h. Additionally, a separate cohort of animals was utilized to assess total plasma-brain levels (PBL, ratio reported as Kp) of compound at a 0.25 time point. In this fashion, standard plasma-based PK parameters (elimination t 1/2, […] (MRT), plasma clearance (CLp), and volume of distribution (Vss)) were measured alongside a parallel assessment of total brain exposure.
PK PBL Cassette Experimental Conditions
4 compounds plus one control were formulated as a solution in ethanol, PEG400, and DMSO (1:3:6 v/v, respectively) at a concentration of 1 mg/mL and administered as a single IV dose (1 mL/kg, 0.2 mg/kg per compound, total 1 mg/kg) to male, Sprague Dawley rats (n = 1) via injection into a surgically -implanted jugular vein catheter. Blood samples were collected serially from a surgically implanted carotid artery catheter in each animal over multiple post -administration time points (0.033, 0.117, 0.25, 0.5, 1, 2, 4, 7, and 24 hours) into chilled, K 2EDTA anticoagulant - fortified tubes and immediately placed on wet ice. The blood samples were then centrifuged (1700 rcf, 5 minutes, 4 °C) to ob tain plasma samples, which were stored at -80 °C until analysis […]
For determination of the brain over plasma ratio (K p), the same cassette of compounds plus control were formulated in ethanol, PEG400, and DMSO (1:3:6 v/v, respectively) and administered as a single IV dose (1 mL/kg, 0.2 mg/kg per compound, total 1 mg/kg) to male, Sprague Dawley rats ( n = 1) via injection into a surgically-implanted jugular vein catheter. At 15 min post dosing, blood sample was collected terminally into chilled, K 2EDTA anticoagulant-fortified tube and immediately placed on wet ice. The bloo d sample was then centrifuged (1700 rcf, 5 minutes, 4 °C) to obtain plasma sample. At the same post-administration time point, whole brain sample was obtained by rapid dissection, rinsed with PBS, and immediately frozen in individual tissue collection box (dry ice). All brain and plasma samples were stored at -80 °C until […]
Samples preparation for bioanalysis
Plasma samples from the in-life phase of the study were thawed at ambient temperature (benchtop), and then aliquots (20 µL per sample) were transferred to a 96-shallow-well (V-bottom) plate. Matrix-matched quality control (QC) samples and a standard curve of each analyte (1 mg/mL DMSO stock solution) were prepared in blank rat plasma (K2EDTA-treated) via serial dilution and transferred (20 µL each) to the plate along with multiple blank plasma samples. MeCN (120 µL) containing IS (10 nM carbamazepine) was added to each well of the plate to precipitate protein. The plate was then centrifuged (4000 rcf, 5 minutes, ambient temperature), and resulting supernatants (60 µL each) were transferred to a new 96-shallow-well (V-bottom) plate containing an equal volume (60 µL per well) of water (Milli-Q purified). The plate was then sealed in preparation for LC-MS/MS analysis.
Preparation of brain samples was identical to that of plasma samples except for the following modifications. While thawing, brains were weighed (inside their collection boxes using a universal empty collection box tare weight) and then subjected to mechanical homogenization […]

The mark [1] stands for this setting: Sprague-Dawley, plasma, iv, read-out: AUC.
Where [2] appears, read: Sprague-Dawley, plasma, iv, read-out: MRT.

With `[2H]C([2H])([2H])Oc1ccc(CNCc2ccc(-c3cccc(OC)c3)cc2)cc1` [Compound 9], the “Kp (total brain to plasma ratio)” value is given as 2.15; the AUC (in general, concentration integrated over time) worked out at 131 ng·h/mL; the CLp is recorded as 25.4 mL/min/kg; the “Elim. t1/2” value was 1.56 h. Also, the MRT (as a rule, a mean duration of stay, worked out from the concentration-time curve) is recorded as 1.02 h; the Vss – broadly, a proportionality between amount in the body and measured concentration, not a real space – was 1.55 L/kg.

With `COc1ccc(CNCc2ccc(-c3cccc(C#N)c3)cc2)cc1` [Compound 5t], the Kp at 0.25 h (Sprague-Dawley, iv) is 1.25. The AUC under setting [1] amounted to 165 ng·h/mL. Moreover, under “Sprague-Dawley, plasma, iv”, the clearance was found to be 20.2 mL/min/kg, the half-life is 1.66 h and the Vd turned out to be 1.2 L/kg. For the same compound, the MRT under setting [2] turned out to be 0.99 h.

On to `COc1ccc(CNCc2ccc(-c3cccc(OC)c3)cc2)cc1` [Compound 5s, 1-(3′-Methoxy-[1,1’-biphenyl]-4-yl)-N-(4-methoxybenzyl)methanamine], for which the Kp at 0.25 h (Sprague-Dawley, iv) amounted to 1.81. Further, the AUC under setting [1] is 189 ng·h/mL. Where the note is “Sprague-Dawley, plasma, iv”, the clearance amounted to 17.7 mL/min/kg, the half-life was 1.56 h and the Vd came to 1.06 L/kg. For the same compound, the MRT under setting [2] came to 0.99 h.

With `COc1ccc(CNCc2cccc(-c3ccccc3)c2)cc1` [Compound 5j], the Kp at 0.25 h (Sprague-Dawley, iv) was 4.23. The AUC under setting [1] amounted to 105 ng·h/mL. Also, under “Sprague-Dawley, plasma, iv”, the clearance is 31.7 mL/min/kg, the half-life is 1.18 h and the Vd was 1.9 L/kg. Further, the MRT under setting [2] was determined as 1 h.

Turning to `[2H]C([2H])([2H])Oc1ccc(CNCc2ccc(-c3cccc(OC([2H])([2H])[2H])c3)cc2)cc1` [Compound 13], the “Kp (total brain to plasma ratio)” value is recorded as 2.06, the AUC is 126 ng·h/mL, the CLp came to 26.4 mL/min/kg and the “Elim. t1/2” value amounted to 1.59 h. For the same compound, the MRT was determined as 1.00 h and the Vss is listed as 1.58 L/kg.

On to `COc1ccc(CNCc2cccc3ccccc23)cc1` [ML133, N-(4-methoxybenzyl)-1-(naphthalen-1-yl)methanamine, reference compound], for which the Kp at 0.25 h (Sprague-Dawley, iv) was 3.36. The AUC under setting [1] came out at 104 ng·h/mL. Under “Sprague-Dawley, plasma, iv”, the clearance is 31.9 mL/min/kg, the half-life was 0.75 h and the Vd came out at 1.5 L/kg. For the same compound, the MRT under setting [2] was found to be 0.78 h.

As for `COc1ccc(CNCc2ccc3c(c2)OC(F)(F)O3)cc1` [Compound 5h], under “Sprague-Dawley, iv”, the Kp at 0.25 h is 2.13. Further, the AUC under setting [1] turned out to be 110 ng·h/mL. For the same compound, for the setting “Sprague-Dawley, plasma, iv”, the clearance worked out at 30.4 mL/min/kg, the half-life was 1.33 h and the Vd worked out at 1.58 L/kg. Further, the MRT under setting [2] is 0.87 h.

Take `[2H]C([2H])([2H])Oc1ccc(CNCc2cccc3ccccc23)cc1` [Compound 7]: under “Sprague-Dawley, iv”, the Kp at 0.25 h is 3.3. Further, the AUC under setting [1] came to 146 ng·h/mL. In addition, for the setting “Sprague-Dawley, plasma, iv”, the clearance amounted to 22.8 mL/min/kg, the half-life is 1.39 h and the Vd turned out to be 1.7 L/kg. Under setting [2], the MRT is 1.24 h. In addition, where the note is “rat i.v. cassette”, the “Fold longer t1/2 compared to ML133” value is ~2 fold and the “Fold lower overall plasma clearance compared to ML133” value is ~1.4 fold.

On to `COc1ccc(CNCc2ccc(-c3cccc(F)c3)cc2)cc1` [Compound 5p], for which, under “Sprague-Dawley, iv”, the Kp at 0.25 h stood at 2.27. Moreover, under setting [1], the AUC was 109 ng·h/mL. In addition, under “Sprague-Dawley, plasma, iv”, the clearance amounted to 30.6 mL/min/kg, the half-life was 0.69 h and the Vd stood at 1.39 L/kg. The MRT under setting [2] worked out at 0.76 h.

As for `COc1ccc(CNCc2ccc(-c3ccccc3)cc2)cc1` [Compound 5k], the Kp at 0.25 h (Sprague-Dawley, iv) came to 1.82. Further, the AUC under setting [1] was determined as 148 ng·h/mL. Under “Sprague-Dawley, plasma, iv”, the clearance was determined as 22.6 mL/min/kg, the half-life is 1.68 h and the Vd is 1.46 L/kg. Also, the MRT under setting [2] is 1.08 h.

Consider `[2H]C([2H])([2H])Oc1cccc(-c2ccc(CNCc3ccc(OC)cc3)cc2)c1` [Compound 11], for which the “Kp (total brain to plasma ratio)” value amounted to 1.94, the AUC amounted to 127 ng·h/mL, the CLp was 26.2 mL/min/kg and the “Elim. t1/2” value is listed as 1.54 h. Besides, the MRT stood at 0.81 h and the Vss was 1.27 L/kg.
